Measurements from patent publication US20050058745A1, “Use of Labiatae herb preparations for extending the flavor shelf life of malt beverages” (priority 2003, published 2005).
Entries after “also recorded” stand apart in the source; their conditions may differ. Values belong to the compound of their own block, whether it stands above or below them.

Tests used:
[1] = DCIP redox potential vs CA concentration, semi-light beer; type: physicochemical; settings: 4 hr, 2-4° C.
Procedure: (§1) The light beer was purchased at a local market and was 2 months old at time of use. Carnosic acid was added via a 1% ethanol solution made with pure CA. The levels of addition were 0, 5, 10, 15 and 20 ppm. The beers were opened, additions made and the beers were fobbed and crowned as described in Example 4. All analyses were done in triplicate using the DCIP method as described in Example 4. The samples were refrigerated for approx. 4 hr before being degassed and analyzed.
The same experiment was carried out with a semi-light beer with a production code indicating it was 5 months old.

[2] = DCIP redox potential vs CA concentration, light beer; type: physicochemical; settings: 4 hr, 2-4° C.
Procedure: as §1

[3] = DCIP redox potential of the beer of Example 1, with added air; type: physicochemical; settings: 20 ppm CA, Plus Air
Procedure: A 10 mg/mL solution of carnosic acid was prepared by taking 250 mg of 100% pure crystal by HPLC and diluting to a total volume of 25 mL with ethanol.
The bottle dosing process from Example 1 was modified to allow for the inclusion of air. • A bottle of the beer was opened, struck sharply on the top to induce foaming (called “fobbing”), and crowned. The fobbing excludes air. The bottle was swirled and inverted. This sample was designated No CA, No Air. • A bottle was opened and dosed with 7.1 mg of CA (20 ppm) to a 12 oz bottle from 710 μL of the above solution. After addition we gave the headspace two puffs of air, from a 25 mL squeeze bulb. The bottle was crowned, swirled and inverted without fobbing. […]
A standard solution of […] sodium salt (DCIP) at a concentration of 145 mg/dL was prepared by the method described in Methodensammlung der Mitteleuropäischen Brautechnischene Analösen Kommission, Vierte Ausgabe 2002, Editor Prof. […] The concentration of DCIP in mg/dL was measured by multiplying the mL of titer by 14.5. […]
The beers were stored in a 39° C. box for 14 days. […] The beers to be analyzed (the four treatments above) were degassed by centrifuging at 6,000 rpm for 15 min. […] Some of the degassed beer was poured to fill a 1 cm cuvette and placed in a spectrophotometer set to record the absorbance at 520 nm. […]
The “Redox Potential” was calculated by using the formula: [formula]

[4] = Flavor stability of flavored malt beverage; settings: 10 ppm CA and 5 ppm CN; 10 ppm RA
Procedure: To a flavored malt beverage 10 ppm CA and 5 ppm CN, is added, and the beverage aged. To the same beverage, 10 ppm RA is added. […] When RA is added to the CA and or CN, an improvement is observed.

[5] = Scaling sensory panel for staling, model citrus beverage; settings: for Panelist staling Average (0 fresh, 10 most stale): 50 ppm (RA/CA: 50 ppm each)
Procedure: Carbon filtered water was carbonated to 3.5 to 4 times the volume of beer. 59.2 ml of syrup was added to each 355 ml bottle. Each bottle was individually dosed with the treatments listed in Table 22 by adding 1.775 mL of a 1% (weight/volume) solution of carnosol or rosmarinic acid in ethanol to give 50 ppm of each. The bottle was filled to approximately 355 ml with carbonated water before it was capped and inverted. Fresh samples were stored in the refrigerator (0° C.). Heat exposed samples were aged in the oven (32° C.) for seven days. The sensory data were taken in the following manner. Each sample (controls and treatments) was presented to the panelists one time. Panelists rated the beers on a scale of 0-10, with 0 being fresh and 10 being most stale. Panelists were given examples of a fresh and stale material prior to the panel for training on these characteristics. Since the output of the panel as a whole was desired, and not any one individual panelist, the means of each treatment sample in each replicate groups were calculated and tabulated as in Table 24. […] These diluted samples best represent the loss in flavor that occurs when the sample is thermally aged. […] Statistical analysis consisted of doing paired t-Tests on the treatment sample vs. the aged control sample (Table 25). One-tailed tests were used that probed the question whether the […] values of one treatment were lower than that of the other (e.g treatment vs. control). Confidence levels were reported along with p values.

[6] = Stability of RA in 9.5% tetrahydroisohumulone solution at pH 8; type: physicochemical; settings: pH 8, room temperature
Procedure: A solution of rosmarinic acid in 9.5% tetrahydroisohumulone at pH 8 was prepared and allowed to stand at room temperature for an extended period of time to determine stability.

Structure (SMILES): CC(C)c1cc2c(c(O)c1O)[C@@]1(C(=O)O)CCCC(C)(C)[C@@H]1CC2 [CA, carnosic acid]
Redox Potential ([1]; 5 ppm CA): 47.4
Redox Potential ([1]; 10 ppm CA): 56.6
Redox Potential ([1]; 15 ppm CA): 64.8
Redox Potential ([1]; 20 ppm CA): 73.9
Redox Potential ([2]; 5 ppm CA): 28.1
Redox Potential ([2]; 10 ppm CA): 40.5
Redox Potential ([2]; 15 ppm CA): 51.6
Redox Potential ([2]; 20 ppm CA): 67.4
Redox Initial [3]: 37.0
Redox After 14 Days ([3]; 39° C.): 33.8

flavor stability of aged flavored malt beverage [4]: only slightly better than the control
flavor stabilization in model citrus beverage ([5]; scaling study of staling): not an effect flavor stabilizer
% Rosmarinic Acid in Solution ([6]; 0 days): 12.07%
% Rosmarinic Acid in Solution ([6]; 3 days): 12.45%
% Rosmarinic Acid in Solution ([6]; 5 days): 12.40%
% Rosmarinic Acid in Solution ([6]; 15 days): 12.12%
% Rosmarinic Acid in Solution ([6]; 38 days): 11.36%
% Rosmarinic Acid in Solution ([6]; 54 days): 11.74%
% Rosmarinic Acid in Solution ([6]; 86 days): 10.88%
Structure (SMILES): O=C(/C=C/c1ccc(O)c(O)c1)O[C@H](Cc1ccc(O)c(O)c1)C(=O)O [RA, rosmarinic acid]
Panelist staling Average (0 fresh, 10 most stale) ([5]; Aged (32° C., seven days)): 6.17
Panelist staling Average (0 fresh, 10 most stale) ([5]; Fresh): 0.67
stability in hop acid solution [6]: stable in this formulation for at least three months; also recorded: very stable in the hop acid solution
